Measured values taken from PubChem BioAssay AID248 (DTP/NCI, 2004).
Values joined by “and” are separate entries in the source; they are usually repeats but may differ in a detail not shown here. Equal values may be shown once. Toxic doses and inconclusive results are not listed. No stated cut-off is given here; in the data, active means T/C of 150% or more; inactive means T/C below 125%.

System: L1210 leukemia ip in BDF1 mice, survival T/C
Test: NCI In Vivo Anticancer Drug Screen. Data for tumor model L1210 Leukemia (intraperitoneal) in B6D2F1 (BDF1) mice
Details: endpoint: mean survival time, higher = longer survival
In short: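 Antitumor effect is assessed in tumor-bearing animals. Survival in the compound arm is compared with a vehicle-dosed control arm and expressed as their quotient.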

[1] = dose: 100.0 mg/kg/injection, schedule: Q01DX009 (ip), vehicle: saline with Tween-80
[2] = dose: 200.0 mg/kg/injection, schedule: Q01DX009 (ip), vehicle: saline with Tween-80
[3] = dose: 200.0 mg/kg/injection, schedule: Q01DX001 (ip), vehicle: saline
[4] = dose: 400.0 mg/kg/injection, schedule: Q01DX001 (ip), vehicle: saline
[5] = dose: 25.0 mg/kg/injection, schedule: Q04DX002 (ip), vehicle: Klucel (hydroxypropylcellulose) (HPC)
[6] = dose: 50.0 mg/kg/injection, schedule: Q04DX002 (ip), vehicle: Klucel (hydroxypropylcellulose) (HPC)
[7] = dose: 50.0 mg/kg/injection, schedule: Q01DX009 (ip), vehicle: Klucel (hydroxypropylcellulose) (HPC)
[8] = dose: 100.0 mg/kg/injection, schedule: Q01DX009 (ip), vehicle: Klucel (hydroxypropylcellulose) (HPC)
[9] = dose: 100.0 mg/kg/injection, schedule: Q04DX003 (ip), vehicle: Klucel (hydroxypropylcellulose) (HPC)
[10] = dose: 200.0 mg/kg/injection, schedule: Q01DX009 (ip), vehicle: Klucel (hydroxypropylcellulose) (HPC)
[11] = dose: 200.0 mg/kg/injection, schedule: Q04DX003 (ip), vehicle: Klucel (hydroxypropylcellulose) (HPC)
[12] = dose: 400.0 mg/kg/injection, schedule: Q04DX003 (ip), vehicle: Klucel (hydroxypropylcellulose) (HPC)
[13] = dose: 100.0 mg/kg/injection, schedule: Q04DX003 (ip), vehicle: saline with Tween-80
[14] = dose: 200.0 mg/kg/injection, schedule: Q04DX003 (ip), vehicle: saline with Tween-80
[15] = dose: 100.0 mg/kg/injection, schedule: Q01DX001 (ip), vehicle: carboxymethylcellulose (CMC)
[16] = dose: 200.0 mg/kg/injection, schedule: Q01DX001 (ip), vehicle: carboxymethylcellulose (CMC)
[17] = dose: 100.0 mg/kg/injection, schedule: Q01DX001 (ip), vehicle: saline
[18] = dose: 400.0 mg/kg/injection, schedule: Q04DX003 (ip), vehicle: saline with Tween-80

Measured: T/C

CCCC(=O)Nc1ccc([N+](=O)[O-])cc1OC
inactive: [1] 105 % of control | [2] 94 % of control | dose: 400.0 mg/kg/injection, schedule: Q01DX009 (ip), vehicle: saline with Tween-80 94 % of control

O=C(O)c1ccc(/C=N/NC(=S)Nc2cccc3cccnc23)cc1
inactive: [3] 94 % of control | [4] 97 % of control

CCN(CC)CCOC(=O)c1ccc(N=C=S)cc1
inactive: dose: 12.5 mg/kg/injection, schedule: Q01DX009 (ip), vehicle: saline 102 % of control | dose: 25.0 mg/kg/injection, schedule: Q01DX009 (ip), vehicle: saline 100 % of control | dose: 50.0 mg/kg/injection, schedule: Q01DX009 (ip), vehicle: saline 96 % of control

NCc1ccccc1F
inactive: dose: 100.0 mg/kg/injection, schedule: Q01DX009 (ip), vehicle: saline 100 % of control | dose: 100.0 mg/kg/injection, schedule: Q04DX003 (ip), vehicle: saline 107 % of control | dose: 200.0 mg/kg/injection, schedule: Q01DX009 (ip), vehicle: saline 90 % of control | dose: 200.0 mg/kg/injection, schedule: Q04DX003 (ip), vehicle: saline 100 % of control | dose: 400.0 mg/kg/injection, schedule: Q04DX003 (ip), vehicle: saline 102 % of control

O=C1C=CC(=O)c2c(O)c(CBr)c(CBr)c(O)c21
inactive: dose: 6.25 mg/kg/injection, schedule: Q01DX009 (ip), vehicle: water 101 % of control | dose: 12.5 mg/kg/injection, schedule: Q01DX009 (ip), vehicle: water 92 % of control | dose: 25.0 mg/kg/injection, schedule: Q01DX009 (ip), vehicle: water 93 % of control and 94 % of control | dose: 50.0 mg/kg/injection, schedule: Q01DX009 (ip), vehicle: water 89 % of control

O/N=C/c1cccn1-c1cccc2c(-n3cccc3/C=N/O)cccc12
inactive: [5] 101 % of control | [6] 93 % of control | dose: 100.0 mg/kg/injection, schedule: Q04DX002 (ip), vehicle: Klucel (hydroxypropylcellulose) (HPC) 97 % of control

COc1ccc(/C=N\NC(=O)CNC(=O)Nc2cccc([N+](=O)[O-])c2)cc1O
inactive: dose: 50.0 mg/kg/injection, schedule: Q01DX009 (ip), vehicle: saline with Tween-80 93 % of control | [1] 100 % of control | [2] 96 % of control

CC(C)(C)C1([Si](C)(C)C)SCCCS1
inactive: dose: 100.0 mg/kg/injection, schedule: Q04DX002 (ip), vehicle: other 114 % of control | dose: 200.0 mg/kg/injection, schedule: Q04DX002 (ip), vehicle: other 108 % of control | dose: 400.0 mg/kg/injection, schedule: Q04DX002 (ip), vehicle: other 101 % of control

O=c1[nH]cnc2ncn(Cc3ccccc3)c12
inactive: dose: 12.5 mg/kg/injection, schedule: Q04DX002 (ip), vehicle: Klucel (hydroxypropylcellulose) (HPC) 115 % of control | [5] 88 % of control | [6] 102 % of control

CC(=O)Oc1ccc(C)cc1
inactive: [7] 94 % of control | [8] 110 % of control | [9] 100 % of control | [10] 107 % of control | [11] 104 % of control

CCOC(=O)/C(C#N)=C(\CCCCc1ccccc1)CC(C)C
inactive: dose: 100.0 mg/kg/injection, schedule: Q04DX002 (ip), vehicle: saline with Tween-80 101 % of control | dose: 200.0 mg/kg/injection, schedule: Q04DX002 (ip), vehicle: saline with Tween-80 92 % of control | dose: 400.0 mg/kg/injection, schedule: Q04DX002 (ip), vehicle: saline with Tween-80 104 % of control

NC(=O)CC1CCCCC1
inactive: [9] 97 % of control | [11] 105 % of control | [12] 103 % of control

COc1cc(-c2ccc(-[n+]3nc(-c4ccc([N+](=O)[O-])cc4)nn3-c3ccc([N+](=O)[O-])cc3)c(OC)c2)ccc1-[n+]1nc(-c2ccc([N+](=O)[O-])cc2)nn1-c1ccc([N+](=O)[O-])cc1
inactive: dose: 15.0 mg/kg/injection, schedule: Q01DX001 (ip), vehicle: carboxymethylcellulose (CMC) 89 % of control | dose: 30.0 mg/kg/injection, schedule: Q01DX001 (ip), vehicle: carboxymethylcellulose (CMC) 104 % of control | dose: 60.0 mg/kg/injection, schedule: Q01DX001 (ip), vehicle: carboxymethylcellulose (CMC) 93 % of control

O=C(O)CC1(C(=O)O)CC2(Cl)C(Cl)=C(Cl)C1(Cl)C2(Cl)Cl (stereo not drawn)
inactive: [13] 107 % of control | [14] 112 % of control

O=C(O)c1ccc(NC(=O)c2ccc(C(=O)Nc3ccc(C(=O)O)cc3)cc2)cc1
inactive: dose: 15.0 mg/kg/injection, schedule: Q01DX Z (ip), vehicle: methylcellulose (MC) 101 % of control | dose: 60.0 mg/kg/injection, schedule: Q01DX Z (ip), vehicle: methylcellulose (MC) 98 % of control | dose: 120.0 mg/kg/injection, schedule: Q01DX Z (ip), vehicle: methylcellulose (MC) 95 % of control

S=C(c1ccccn1)N1CCOCC1
inactive: [9] 90 % of control | [11] 102 % of control | [12] 95 % of control

CS(=O)(=O)c1ccc2c(c1)-c1ccccc1C2=O
inactive: [15] 96 % of control | [16] 104 % of control | dose: 400.0 mg/kg/injection, schedule: Q01DX001 (ip), vehicle: carboxymethylcellulose (CMC) 98 % of control

Cc1ccc(S(=O)(=O)N(c2cc(C)ccc2C)c2ccccc2N)cc1
inactive: dose: 50.0 mg/kg/injection, schedule: Q01DX001 (ip), vehicle: saline 93 % of control | [17] 95 % of control | [3] 98 % of control | [4] 93 % of control

O=C(O)CSc1n[nH]c(=O)[nH]c1=O
inactive: [17] 117 % of control | [3] 97 % of control | [4] 113 % of control

O=NC1C(Cl)C2CC1C1C=CCC12 (stereo not drawn)
inactive: dose: 12.5 mg/kg/injection, schedule: Q01DX009 (ip), vehicle: Klucel (hydroxypropylcellulose) (HPC) 96 % of control | dose: 25.0 mg/kg/injection, schedule: Q01DX009 (ip), vehicle: Klucel (hydroxypropylcellulose) (HPC) 98 % of control | [7] 91 % of control | [1] 97 % of control | [9] 94 % of control | [11] 92 % of control | [12] 87 % of control

CCOC1CCN(CCCn2c3ccccc3c3ccc(C(C)=O)cc32)CC1
inactive: [17] 95 % of control | [3] 92 % of control

CC1CC(C)(C)N=C(C(Cc2ccc(Br)cc2)c2ccccc2)O1 (stereo not drawn)
inactive: [13] 97 % of control | [14] 92 % of control | [18] 95 % of control

OC(CC(O)(C(F)(F)F)C(F)(F)F)c1ccccc1 (stereo not drawn)
inactive: [13] 103 % of control | [14] 96 % of control | [18] 97 % of control

O=S1(=O)N2CN3CCN(C2)CN1C3
inactive: [8] 105 % of control | [9] 95 % of control | [10] 115 % of control | [11] 103 % of control | dose: 400.0 mg/kg/injection, schedule: Q01DX009 (ip), vehicle: Klucel (hydroxypropylcellulose) (HPC) 98 % of control | [12] 98 % of control

CC1C2CC3OC(=O)C1C3C2 (stereo not drawn)
inactive: dose: 50.0 mg/kg/injection, schedule: Q01DX001 (ip), vehicle: carboxymethylcellulose (CMC) 104 % of control | [15] 102 % of control | [16] 87 % of control

CCOC(=O)/C=C(/Nc1ccc(OC)cc1[N+](=O)[O-])C(=O)OCC
inactive: [17] 95 % of control | [3] 95 % of control | [4] 104 % of control
